GI50 and IC50 data for 25 compounds are collected here from patent US20230053649A1 (Cedilla Therapeutics, Inc., priority 2021, published 2023).

The subject of experiment [1] is mesothelioma cell line NCI-H226. In words: 72H TEAD Proliferation Assay (Cell Titer-Glo 2.0). Conditions: Homo sapiens, CTG 2.0, cell line not given in Table 1 (NCI-H226 TEAD-responsive, NCI-H28 non-responsive counter-screen). Format: cell-based. As to the method:
72H TEAD Proliferation Assay.
The effect of TEAD inhibition on cell proliferation was assayed using Cell Titer Glo (CTG) 2.0 to measure response in mesothelioma cell lines NCI-H226 (ATCC, #CRL-5826) and NCI-H28 (ATCC, #CRL-5820).
The 72H TEAD Proliferation assay utilizes Cell Titer-Glo 2.0 (Promega, #G9243) to measure the proliferation of cells in the presence or absence of compound. Cell Titer-Glo 2.0 determines the amount of viable cells by quantifying ATP (an indication of metabolically active cells). It utilizes the conversion of Luciferin to Oxyluciferin and a luminescent signal with the use of ATP to report the quantity of viable cells in culture. Within cells that are continually growing, ATP is being synthesized to meet their metabolic demands, meanwhile the opposite is true for cells that are dying or slowing down their proliferation and either no longer using ATP or are using less, respectively. The NF2-deficient NCI-H226 has been genetically validated as a cell line that is sensitive to TEAD inhibition. The NF2-wild type NCI-H28 has been genetically validated as a cell line that is not sensitive to TEAD inhibition and grows independently of TEAD activity.
Compounds were screened against the responsive NCI-H226 cell line to assess the compounds' ability to inhibit TEAD and cell growth. Compounds were also screened against the non-responsive NCI-H28 cell line to ascertain whether the inhibition of cell growth was due to inhibition of the target TEAD or whether the inhibition was due to off-target cytotoxicity.
Both NCI-H226 and NCI-H28 cells were grown at 37° C. with 5% CO2 using Growth Medium 1.
Anti-proliferative effect of compounds that inhibits TEAD activity measured by CTG
1) Assay ready plates (ARPs) were prepared by Echo acoustic liquid handler. For each compound, duplicate of 10-point half-log dilution series were dispensed in a 384-well microplate (Corning 3571).
3) Before use, ARPs were allowed to warm up to room temperature for 30 min.
4) ARPs were spun for 5 minutes at 1500RPM before removing the plate seals.
5) NCI-H226 or NCI-H28 cells were harvested from culture in Assay Medium 1 and the multidrop Combi reagent dispenser was used to seed cells at 500 cells per 50ul in each well of the ARPs and one Corning 3571 plate without compounds for Time 0 (TO) readout.
6) The TO plate was incubated for 2 hours at 37° C. with 5% CO2 to allow cells to settle, then the CTG Assay was performed.
7) All ARPs were incubated for 72 hours at 37° C. with 5% CO2, then the CTG Assay was performed for Time 72H (T72) readout.
8) CTG Assay: Bravo liquid handler (Agilent) was used to add 25ul of CTG 2.0 to all columns of the plate except for Column 24, which was used to subtract out the background. After CTG addition, plates were placed on shaker at 800RPM for 15 minutes at room temperature and kept in the dark. Luminescence was measured using EnVision multilabel plate reader with ultra-sensitive detection module.
9) Data Analysis: First background luminescence (no CTG wells) was subtracted from luminescence reading of all wells, then TO luminescence was subtracted from T72 luminescence. To compare anti-proliferative effect of compounds, GI50 was obtained by fitting dose response curves with nonlinear regression curve fit.

The target of experiment [2] is TEAD1 protein (YAP Binding Domain) (Homo sapiens, UniProt P28347). Description: biochemical.
Sequence of TEAD1 protein (YAP Binding Domain) (P28347 167-426 limits assumed): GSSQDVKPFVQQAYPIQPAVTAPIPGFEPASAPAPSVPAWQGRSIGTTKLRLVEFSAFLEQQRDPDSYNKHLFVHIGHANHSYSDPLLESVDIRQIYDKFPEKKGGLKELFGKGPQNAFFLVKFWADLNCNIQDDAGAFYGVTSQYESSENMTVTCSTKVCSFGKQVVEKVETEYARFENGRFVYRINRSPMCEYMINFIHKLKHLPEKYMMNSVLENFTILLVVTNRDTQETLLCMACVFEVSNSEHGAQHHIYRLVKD
Procedure: Compound Displacement Assay.
A TEAD1 lipid pocket displacement assay was carried out according to the following protocol. Purified His-tagged TEAD1 protein (YAP Binding Domain) was pre-mixed with a Cy5-probe (Cy5-conjugated to a small molecule that binds in the TEAD1 lipid pocket) and Terbium-labeled anti-His antibody (Cisbio Cat 61HI2TLB). The binding of the Cy5-probe to anti-His-Tb/His-tag TEAD1 complex yielded a TR-FRET signal. […] After 60 minutes incubation at room temperature of compounds with the His-TEAD1/anti-His-Tb/Cy5-probe complex, the plate was read on a plate reader (BMG ClarioStar Cat 430-1300) using TR-FRET mode with wavelengths of 665 nm/620 nm. The potency of compounds as TEAD1 lipid pocket binders was determined by IC50 value generated using a non-linear 4 parameter curve fit.

`C#Cc1cccc2cc(C(=O)N[C@@H](C)c3ccccn3)cnc12` [Compound 30, (S)-8-ethynyl-N-(1-(pyridin-2-yl)ethyl)quinoline-3-carboxamide]: the GI50 in experiment [1] is greater than 5 µM. This compound also had an IC50 in experiment [2] greater than 0.5 µM.

In turn, `C[C@H](NC(=O)c1cnc2c(C#CC(C)(C)C)cccc2c1)c1ccccn1` [Compound 31, (S)-8-(3,3-dimethylbut-1-yn-1-yl)-N-(1-(pyridin-2-yl)ethyl)quinoline-3-carboxamide] had a GI50 in experiment [1] of 1 to 5 µM. Besides, the IC50 in experiment [2] was greater than 0.5 µM. The matching figures for `COc1ccc2c(N3CCC(C(F)(F)F)CC3)nc(C(=O)N[C@H](C)CO)cc2c1` [Compound 67, (R)-N-(1-hydroxypropan-2-yl)-6-methoxy-1-(4-(trifluoromethyl)piperidin-1-yl)isoquinoline-3-carboxamide]: greater than 5 µM and greater than 0.5 µM. For `COc1ccc2c(N3CCC(C(F)(F)F)CC3)nc(C(=O)O)cc2c1` [Compound 68, 6-methoxy-1-(4-(trifluoromethyl)piperidin-1-yl)isoquinoline-3-carboxylic acid] the same measures were greater than 5 µM and greater than 0.5 µM.

In the case of `COc1cc(N2CCC(C(C)(C)C)CC2)c2ncc(C(=O)N[C@H](C)CO)cc2c1` [Compound I-2, (R)-8-(4-(tert-butyl)piperidin-1-yl)-N-(1-hydroxypropan-2-yl)-6-methoxyquinoline-3-carboxamide], the GI50 in experiment [1] was no more than 0.5 µM. In experiment [2], this compound registered an IC50 of 0.3 to 0.5 µM.

Consider `COc1cc(N2CCC3(CC2)CC3)c2ncc(C(=O)N[C@H](C)CO)cc2c1` [Compound I-3, (R)-N-(1-hydroxypropan-2-yl)-6-methoxy-8-(6-azaspiro[2.5]octan-6-yl)quinoline-3-carboxamide], for which, in experiment [1], the GI50 was 0.5 to 1 µM. In addition, the IC50 in experiment [2] fell in the range of 0.15 to 0.3 µM. For `COc1cc(N2CCC3(CCCC3)CC2)c2ncc(C(=O)N[C@H](C)CO)cc2c1` [Compound I-4, (R)-N-(1-hydroxypropan-2-yl)-6-methoxy-8-(8-azaspiro[4.5]decan-8-yl)quinoline-3-carboxamide] the same measures were 0.5 to 1 µM and 0.15 to 0.3 µM.

In experiment [1], `COC[C@H](C)NC(=O)c1cnc2c(N3CCC(CC(F)(F)F)CC3)cc(OC)cc2c1` [Compound I-5, (S)-6-methoxy-N-(1-methoxypropan-2-yl)-8-(4-(2,2,2-trifluoroethyl)piperidin-1-yl)quinoline-3-carboxamide] showed a GI50 of 1 to 5 µM. For the same compound, the IC50 in experiment [2] is less than 0.15 µM. For `COc1cc(N2CCC3(CC2)CC(F)(F)C3)c2ncc(C(=O)N[C@H](C)CO)cc2c1` [Compound I-6, (R)-8-(2,2-difluoro-7-azaspiro[3.5]nonan-7-yl)-N-(1-hydroxypropan-2-yl)-6-methoxyquinoline-3-carboxamide] the same measures were 0.5 to 1 µM and less than 0.15 µM. For `COc1cc(N2CCC(C(F)F)CC2)c2ncc(C(=O)N[C@H](C)CO)cc2c1` [Compound I-7, (R)-8-(4-(difluoromethyl)piperidin-1-yl)-N-(1-hydroxypropan-2-yl)-6-methoxyquinoline-3-carboxamide] the same measures were 1 to 5 µM and 0.15 to 0.3 µM. The matching figures for `COc1cc(N2CCN(CC(F)(F)F)CC2)c2ncc(C(=O)N[C@H](C)CO)cc2c1` [Compound I-8, (R)-N-(1-hydroxypropan-2-yl)-6-methoxy-8-(4-(2,2,2-trifluoroethyl)piperazin-1-yl)quinoline-3-carboxamide]: greater than 5 µM and greater than 0.5 µM. On to `COC[C@H](C)NC(=O)c1cnc2c(N3CCC(C(F)(F)F)CC3)cc(OC)cc2c1` [Compound I-9, (S)-6-methoxy-N-(1-methoxypropan-2-yl)-8-(4-(trifluoromethyl)piperidin-1-yl)quinoline-3-carboxamide], for which the GI50 in experiment [1] was no more than 0.5 µM. This compound showed an IC50 in experiment [2] of 0.15 to 0.3 µM.

Compound `COc1cc(N2CCC(C(F)(F)F)CC2)c2ncc(C(=O)NC(C)(C)CO)cc2c1` [Compound I-10, N-(1-hydroxy-2-methylpropan-2-yl)-6-methoxy-8-(4-(trifluoromethyl)piperidin-1-yl)quinoline-3-carboxamide] gave a GI50 in experiment [1] of 1 to 5 µM. In experiment [2], the IC50 was in the range of 0.3 to 0.5 µM. The matching figures for `COc1cc(N2CCC(C(F)(F)F)CC2)c2ncc(C(=O)N3CC(O)C3)cc2c1` [Compound I-11, (3-hydroxyazetidin-1-yl)(6-methoxy-8-(4-(trifluoromethyl)piperidin-1-yl)quinolin-3-yl)methanone]: 1 to 5 µM and greater than 0.5 µM. The matching figures for `COc1cc(N2CCC(C(F)(F)F)CC2)c2ncc(C(=O)N[C@@H](C)COC(F)(F)F)cc2c1` [Compound I-12, (S)-6-methoxy-N-(1-(trifluoromethoxy)propan-2-yl)-8-(4-(trifluoromethyl)piperidin-1-yl)quinoline-3-carboxamide]: no more than 0.5 µM and greater than 0.5 µM. In experiment [1], `CC[C@H](CO)NC(=O)c1cnc2c(N3CCC(C(F)(F)F)CC3)cc(OC)cc2c1` [Compound I-13, (R)-N-(1-hydroxybutan-2-yl)-6-methoxy-8-(4-(trifluoromethyl)piperidin-1-yl)quinoline-3-carboxamide] gave a GI50 of no more than 0.5 µM. Moreover, the IC50 in experiment [2] was less than 0.15 µM. For `CC[C@@H](CO)NC(=O)c1cnc2c(N3CCC(C(F)(F)F)CC3)cc(OC)cc2c1` [Compound I-14, (S)-N-(1-hydroxybutan-2-yl)-6-methoxy-8-(4-(trifluoromethyl)piperidin-1-yl)quinoline-3-carboxamide] the same measures were 1 to 5 µM and 0.15 to 0.3 µM. For `COc1cc(-c2ccc(OC(F)(F)F)cc2)c2ncc(C(=O)N[C@H](C)CO)cc2c1` [Compound I-15, (R)-N-(1-hydroxypropan-2-yl)-6-methoxy-8-(4-(trifluoromethoxy)phenyl)quinoline-3-carboxamide] the same measures were no more than 0.5 µM and less than 0.15 µM.

`COc1cc(-c2ccc(OC(C)(C)C)cc2)c2ncc(C(=O)N[C@H](C)CO)cc2c1` [Compound I-16, (R)-8-(4-(tert-butoxy)phenyl)-N-(1-hydroxypropan-2-yl)-6-methoxyquinoline-3-carboxamide]: the GI50 in experiment [1] was 1 to 5 µM. This compound returned an IC50 in experiment [2] of 0.15 to 0.3 µM. The compound `COc1cc(-c2ccc(OC(F)F)cc2)c2ncc(C(=O)N[C@H](C)CO)cc2c1` [Compound I-17, (R)-8-(4-(difluoromethoxy)phenyl)-N-(1-hydroxypropan-2-yl)-6-methoxyquinoline-3-carboxamide] displayed a GI50 in experiment [1] of no more than 0.5 µM. The IC50 in experiment [2] was less than 0.15 µM. The matching figures for `COc1cc(-c2ccc(OCC(F)(F)F)cc2)c2ncc(C(=O)N[C@H](C)CO)cc2c1` [Compound I-18, (R)-N-(1-hydroxypropan-2-yl)-6-methoxy-8-(4-(2,2,2-trifluoroethoxy)phenyl)quinoline-3-carboxamide]: 1 to 5 µM and 0.15 to 0.3 µM. Take `COc1cc(-c2ccc(Oc3ccccc3)cc2)c2ncc(C(=O)N[C@H](C)CO)cc2c1` [Compound I-19, (R)-N-(1-hydroxypropan-2-yl)-6-methoxy-8-(4-phenoxyphenyl)quinoline-3-carboxamide]: the 50% growth inhibitory concentration (GI50) in experiment [1] is greater than 5 µM. This compound yielded an IC50 in experiment [2] of 0.15 to 0.3 µM. In the case of `COc1cc(-c2ccc(OC(F)(F)F)cc2F)c2ncc(C(=O)N[C@H](C)CO)cc2c1` [Compound I-21, (R)-8-(2-fluoro-4-(trifluoromethoxy)phenyl)-N-(1-hydroxypropan-2-yl)-6-methoxyquinoline-3-carboxamide], the GI50 in experiment [1] was no more than 0.5 µM. On the same count and under the same terms, for `C[C@H](CO)NC(=O)c1cnc2c(N3CCC4(CC3)CC4)cc(OC(F)F)cc2c1` [Compound I-27, (R)-6-(difluoromethoxy)-N-(1-hydroxypropan-2-yl)-8-(6-azaspiro[2.5]octan-6-yl)quinoline-3-carboxamide] the value was 1 to 5 µM; for `CC(CO)NC(=O)c1ccc2c(OCc3ccc(C(F)(F)F)cc3)cccc2c1` (centres unmarked) [Compound I-44, N-(1-hydroxypropan-2-yl)-5-((4-(trifluoromethyl)benzyl)oxy)-2-naphthamide], greater than 5 µM.

In general, GI50 refers to the concentration that inhibits growth by half. Higher therefore signals lower sensitivity of the cells. The term IC50 denotes the concentration needed to halve the response being measured. A high value points to weaker potency in that assay.
